According to PubChem BioAssay (NCI):
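Where inhibition never reached the appropriate level, the endpoint shown equals the highest concentration tested. Otherwise, values were interpolated linearly from a five-concentration, 48-hour dose response in 96-well plates. GI50 = concentration required for 50% inhibition of growth. TGI is the concentration that stops growth completely.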

Legend:
Experiment in all cases: NCI tumour cell line growth inhibition, 48 h
MDA-MB-231 breast = tested on: MDA-MB-231 breast
ACHN renal = tested on: ACHN renal
SF-295 CNS = tested on: SF-295 CNS
OVCAR-3 ovarian = tested on: OVCAR-3 ovarian
SN12C renal = tested on: SN12C renal
HS 578T breast = tested on: HS 578T breast
MOLT-4 leukemia = tested on: MOLT-4 leukemia
SK-MEL-28 melanoma = tested on: SK-MEL-28 melanoma
UO-31 renal = tested on: UO-31 renal
SK-MEL-2 melanoma = tested on: SK-MEL-2 melanoma
BT-549 breast = tested on: BT-549 breast
CAKI-1 renal = tested on: CAKI-1 renal
SF-539 CNS = tested on: SF-539 CNS
LOX IMVI melanoma = tested on: LOX IMVI melanoma
MCF7 breast = tested on: MCF7 breast
DU-145 prostate = tested on: DU-145 prostate
SNB-75 CNS = tested on: SNB-75 CNS
HL-60(TB) leukemia = tested on: HL-60(TB) leukemia
UACC-257 melanoma = tested on: UACC-257 melanoma
COLO 205 colon = tested on: COLO 205 colon
RPMI-8226 leukemia = tested on: RPMI-8226 leukemia
RXF 393 renal = tested on: RXF 393 renal
SF-268 CNS = tested on: SF-268 CNS
OVCAR-4 ovarian = tested on: OVCAR-4 ovarian
SK-MEL-5 melanoma = tested on: SK-MEL-5 melanoma
HOP-62 NSCLC = tested on: HOP-62 NSCLC
HCT-116 colon = tested on: HCT-116 colon
M14 melanoma = tested on: M14 melanoma
K-562 leukemia = tested on: K-562 leukemia
NCI-H23 lung = tested on: NCI-H23 lung
U251 CNS = tested on: U251 CNS
A549 NSCLC = tested on: A549 NSCLC
HCT-15 colon = tested on: HCT-15 colon
A498 renal = tested on: A498 renal
HCC-2998 colon = tested on: HCC-2998 colon
SW-620 colon = tested on: SW-620 colon
HT29 colon = tested on: HT29 colon
HOP-92 NSCLC = tested on: HOP-92 NSCLC
KM12 colon = tested on: KM12 colon
IGROV1 ovarian = tested on: IGROV1 ovarian
UACC-62 melanoma = tested on: UACC-62 melanoma
SNB-19 CNS = tested on: SNB-19 CNS
MDA-MB-435 = tested on: MDA-MB-435
TK-10 renal = tested on: TK-10 renal
NCI-H522 lung = tested on: NCI-H522 lung
MALME-3M melanoma = tested on: MALME-3M melanoma
NCI/ADR-RES ovarian = tested on: NCI/ADR-RES ovarian
T-47D breast = tested on: T-47D breast
SR leukemia = tested on: SR leukemia
SK-OV-3 ovarian = tested on: SK-OV-3 ovarian
OVCAR-8 ovarian = tested on: OVCAR-8 ovarian
CCRF-CEM leukemia = tested on: CCRF-CEM leukemia
PC-3 prostate = tested on: PC-3 prostate
NCI-H226 lung = tested on: NCI-H226 lung
OVCAR-5 ovarian = tested on: OVCAR-5 ovarian
NCI-H460 lung = tested on: NCI-H460 lung

SMILES: Cc1ccc2c(n1)C(=O)C(Cl)=C(Nc1ccc(C)c(C)c1)C2=O
- GI50 (MDA-MB-231 breast): 1620 nM
- TGI (MDA-MB-231 breast): 3810 nM
- GI50 (ACHN renal): 1680 nM
- TGI (ACHN renal): 3130 nM
- GI50 (SF-295 CNS): 1740 nM
- TGI (SF-295 CNS): 3510 nM
- GI50 (OVCAR-3 ovarian): 590 nM
- TGI (OVCAR-3 ovarian): 1890 nM
- GI50 (SN12C renal): 2020 nM
- TGI (SN12C renal): 5270 nM
- GI50 (HS 578T breast): 2260 nM
- TGI (HS 578T breast): 6470 nM
- GI50 (MOLT-4 leukemia): 1920 nM
- TGI (MOLT-4 leukemia): 6590 nM
- GI50 (SK-MEL-28 melanoma): 2070 nM
- TGI (SK-MEL-28 melanoma): 4280 nM
- GI50 (UO-31 renal): 1310 nM
- TGI (UO-31 renal): 2710 nM
- GI50 (SK-MEL-2 melanoma): 2540 nM
- TGI (SK-MEL-2 melanoma): 6570 nM
- GI50 (BT-549 breast): 1410 nM
- TGI (BT-549 breast): 2790 nM
- GI50 (CAKI-1 renal): 1590 nM
- TGI (CAKI-1 renal): 3160 nM
- GI50 (SF-539 CNS): 1770 nM
- TGI (SF-539 CNS): 3230 nM
- GI50 (LOX IMVI melanoma): 726 nM
- TGI (LOX IMVI melanoma): 3420 nM
- GI50 (MCF7 breast): 1010 nM
- TGI (MCF7 breast): 2910 nM
- GI50 (DU-145 prostate): 1720 nM
- TGI (DU-145 prostate): 3420 nM
- GI50 (SNB-75 CNS): 1730 nM
- TGI (SNB-75 CNS): 3870 nM
- GI50 (HL-60(TB) leukemia): 2270 nM
- TGI (HL-60(TB) leukemia): 5700 nM
- GI50 (UACC-257 melanoma): 1560 nM
- TGI (UACC-257 melanoma): 2980 nM
- GI50 (COLO 205 colon): 17200 nM
- TGI (COLO 205 colon): 44300 nM
- GI50 (RPMI-8226 leukemia): 1540 nM
- TGI (RPMI-8226 leukemia): 4700 nM
- GI50 (RXF 393 renal): 1500 nM
- TGI (RXF 393 renal): 2850 nM
- GI50 (SF-268 CNS): 2200 nM
- TGI (SF-268 CNS): 6510 nM
- GI50 (OVCAR-4 ovarian): 1360 nM
- TGI (OVCAR-4 ovarian): 2810 nM
- GI50 (SK-MEL-5 melanoma): 1380 nM
- TGI (SK-MEL-5 melanoma): 2740 nM
- GI50 (HOP-62 NSCLC): 2490 nM
- TGI (HOP-62 NSCLC): 11200 nM
- GI50 (HCT-116 colon): 1150 nM
- TGI (HCT-116 colon): 2640 nM
- GI50 (M14 melanoma): 1460 nM
- TGI (M14 melanoma): 2960 nM
- GI50 (K-562 leukemia): 2040 nM
- TGI (K-562 leukemia): > 100000 nM
- GI50 (NCI-H23 lung): 1200 nM
- TGI (NCI-H23 lung): 3950 nM
- GI50 (U251 CNS): 1480 nM
- TGI (U251 CNS): 2960 nM
- GI50 (A549 NSCLC): 3370 nM
- TGI (A549 NSCLC): 17300 nM
- GI50 (HCT-15 colon): 1120 nM
- TGI (HCT-15 colon): 2880 nM
- GI50 (A498 renal): 10600 nM
- TGI (A498 renal): 25300 nM
- GI50 (HCC-2998 colon): 2120 nM
- TGI (HCC-2998 colon): 4690 nM
- GI50 (SW-620 colon): 2070 nM
- TGI (SW-620 colon): 4510 nM
- GI50 (HT29 colon): 24700 nM
- TGI (HT29 colon): > 100000 nM
- GI50 (HOP-92 NSCLC): 1980 nM
- TGI (HOP-92 NSCLC): 4100 nM
- GI50 (KM12 colon): 2960 nM
- TGI (KM12 colon): > 100000 nM
- GI50 (IGROV1 ovarian): 1850 nM
- TGI (IGROV1 ovarian): 4100 nM
- GI50 (UACC-62 melanoma): 1780 nM
- TGI (UACC-62 melanoma): 4360 nM
- GI50 (SNB-19 CNS): 1590 nM
- TGI (SNB-19 CNS): 4070 nM
- GI50 (MDA-MB-435): 1800 nM
- TGI (MDA-MB-435): 3760 nM
- GI50 (TK-10 renal): 7480 nM
- TGI (TK-10 renal): 19700 nM
- GI50 (NCI-H522 lung): 2000 nM
- TGI (NCI-H522 lung): 4900 nM
- GI50 (MALME-3M melanoma): 2130 nM
- TGI (MALME-3M melanoma): 4220 nM
- GI50 (NCI/ADR-RES ovarian): 2210 nM
- TGI (NCI/ADR-RES ovarian): 8260 nM
- GI50 (T-47D breast): 975 nM
- TGI (T-47D breast): 3220 nM
- GI50 (SR leukemia): 1530 nM
- TGI (SR leukemia): 5750 nM
- GI50 (SK-OV-3 ovarian): 22000 nM
- TGI (SK-OV-3 ovarian): > 100000 nM
- GI50 (OVCAR-8 ovarian): 2270 nM
- TGI (OVCAR-8 ovarian): 6320 nM
- GI50 (CCRF-CEM leukemia): 2460 nM
- TGI (CCRF-CEM leukemia): 6720 nM
- GI50 (PC-3 prostate): 1690 nM
- TGI (PC-3 prostate): 12700 nM
- GI50 (NCI-H226 lung): 1720 nM
- TGI (NCI-H226 lung): 5920 nM
- GI50 (OVCAR-5 ovarian): 2230 nM
- TGI (OVCAR-5 ovarian): 4370 nM
- GI50 (NCI-H460 lung): 2070 nM
- TGI (NCI-H460 lung): 12000 nM
